Reference: patent US11524968B2, “Heterocyclic compound as a protein kinase inhibitor” (HK inno.N Corporation, priority 2017, dated 2022)
Like-named read-outs stand apart in the source and are kept apart here.

Molecular target: JAK1 (Homo sapiens (Human), UniProt P23458)
Test: Analysis of JAK1 activity inhibition ability (ADP-Glo Kinase Assay)
Assay type: biochemical
How it was run: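 JAK1 enzyme, IRS-itide substrate (40 ng/mL) and 250 uM ATP, both as prepared in kinase buffer (Tris-HCl pH 7.5, MgCl2, BSA, DTT), reacted with compound 40 min at 30 °C. ADP formed was detected by ADP-Glo luminescence; IC50 is the concentration giving 50% inhibition versus control.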

[1] = JAK1 enzyme, ADP-Glo luminescence, ATP 250 uM, IRS-itide substrate, 30° C. 40 minutes, read-out: IC50

Sequence of JAK1 (P23458 whole entry): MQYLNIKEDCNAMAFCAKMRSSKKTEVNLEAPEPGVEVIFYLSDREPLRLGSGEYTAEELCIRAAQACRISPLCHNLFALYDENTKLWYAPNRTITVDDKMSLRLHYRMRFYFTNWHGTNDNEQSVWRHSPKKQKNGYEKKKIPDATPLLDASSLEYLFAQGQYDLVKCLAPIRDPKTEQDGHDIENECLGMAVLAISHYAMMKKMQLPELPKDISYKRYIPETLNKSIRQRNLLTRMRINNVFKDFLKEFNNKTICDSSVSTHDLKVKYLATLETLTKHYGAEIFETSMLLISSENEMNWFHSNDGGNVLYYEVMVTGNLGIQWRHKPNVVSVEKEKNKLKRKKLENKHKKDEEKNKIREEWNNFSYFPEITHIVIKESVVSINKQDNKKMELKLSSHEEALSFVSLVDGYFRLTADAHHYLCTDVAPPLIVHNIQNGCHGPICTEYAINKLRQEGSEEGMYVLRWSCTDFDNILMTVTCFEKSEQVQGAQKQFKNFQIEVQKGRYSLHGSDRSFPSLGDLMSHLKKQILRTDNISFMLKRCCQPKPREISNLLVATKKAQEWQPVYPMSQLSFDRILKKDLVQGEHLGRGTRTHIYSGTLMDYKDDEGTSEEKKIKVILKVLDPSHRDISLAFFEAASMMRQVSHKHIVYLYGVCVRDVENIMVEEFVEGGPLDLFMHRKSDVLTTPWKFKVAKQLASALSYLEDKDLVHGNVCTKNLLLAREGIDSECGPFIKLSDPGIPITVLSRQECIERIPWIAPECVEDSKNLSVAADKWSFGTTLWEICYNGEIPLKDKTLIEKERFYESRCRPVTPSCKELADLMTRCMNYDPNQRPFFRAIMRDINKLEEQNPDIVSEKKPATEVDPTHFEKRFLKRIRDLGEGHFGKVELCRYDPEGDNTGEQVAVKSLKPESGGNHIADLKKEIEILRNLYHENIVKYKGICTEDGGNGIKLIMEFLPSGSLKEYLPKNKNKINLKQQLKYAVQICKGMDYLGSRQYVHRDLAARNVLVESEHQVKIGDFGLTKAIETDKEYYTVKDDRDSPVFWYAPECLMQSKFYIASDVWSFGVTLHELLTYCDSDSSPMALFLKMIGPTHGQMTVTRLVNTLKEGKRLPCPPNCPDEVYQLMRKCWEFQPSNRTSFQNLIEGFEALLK

Row | Compound | IC50 [1] | IC50
1 | O=C(Nc1cc(-c2ccc(CC(=O)N3CCCC3)cc2)c2cc[nH]c2n1)C1CC1 [Example 547, N-(4-(4-(2-oxo-2-(pyrrolidin-1-yl)ethyl)phenyl)-1H-pyrrolo[2,3-b]pyridin-6-yl)cyclopropanecarboxamide] | 20 to 200 nM | –
2 | N#CC1CCN(C(=O)Cc2ccc(-c3cc(NC(=O)C4CC4)nc4[nH]ccc34)cc2)CC1 [Example 548, N-(4-(4-(2-(4-cyanopiperidin-1-yl)-2-oxoethyl)phenyl)-1H-pyrrolo[2,3-b]pyridin-6-yl)cyclopropanecarboxamide] | 20 to 200 nM | –
3 | O=C1CCN(C(=O)Cc2ccc(-c3cc(NC(=O)C4CC4)nc4[nH]ccc34)cc2)CC1 [Example 549, N-(4-(4-(2-oxo-2-(4-oxopiperidin-1-yl)ethyl)phenyl)-1H-pyrrolo[2,3-b]pyridin-6-yl)cyclopropanecarboxamide] | – | 20 to 200 nM
4 | CN1CCN(C(=O)Cc2ccc(-c3cc(NC(=O)C4CC4)nc4[nH]ccc34)cc2)CC1 [Example 550, N-(4-(4-(2-(4-methylpiperazin-1-yl)-2-oxoethyl)phenyl)-1H-pyrrolo[2,3-b]pyridin-6-yl)cyclopropanecarboxamide] | 20 to 200 nM | –
5 | CCN1CCN(C(=O)Cc2ccc(-c3cc(NC(=O)C4CC4)nc4[nH]ccc34)cc2)CC1 [Example 551, N-(4-(4-(2-(4-ethylpiperazin-1-yl)-2-oxoethyl)phenyl)-1H-pyrrolo[2,3-b]pyridin-6-yl)cyclopropanecarboxamide] | > 200 nM | –
6 | CC(C)N1CCN(C(=O)Cc2ccc(-c3cc(NC(=O)C4CC4)nc4[nH]ccc34)cc2)CC1 [Example 552, N-(4-(4-(2-(4-isopropylpiperazin-1-yl)-2-oxoethyl)phenyl)-1H-pyrrolo[2,3-b]pyridin-6-yl)cyclopropanecarboxamide] | > 200 nM | –
7 | N#CCCNC(=O)Cc1ccc(-c2cc(NC(=O)C3CC3)nc3[nH]ccc23)cc1 [Example 553, N-(4-(4-(2-((2-cyanoethyl)amino)-2-oxoethyl)phenyl)-1H-pyrrolo[2,3-b]pyridin-6-yl)cyclopropanecarboxamide] | 20 to 200 nM | –
8 | CC(C)(C)OC(=O)N1CCN(C(=O)Cc2ccc(-c3cc(NC(=O)C4CC4)nc4[nH]ccc34)cc2)CC1 [Example 554, tert-butyl 4-(2-(4-(6-(cyclopropanecarboxamido)-1H-pyrrolo[2,3-b]pyridin-4-yl)phenyl)acetyl)piperazine-1-carboxylate] | 20 to 200 nM | –
9 | CC(C)(C)OC(=O)N1CCCC(NC(=O)Cc2ccc(-c3cc(NC(=O)C4CC4)nc4[nH]ccc34)cc2)C1 (centres unmarked) [Example 555, tert-butyl 3-(2-(4-(6-(cyclopropanecarboxamido)-1H-pyrrolo[2,3-b]pyridin-4-yl)phenyl)acetamido)piperidine-1-carboxylate] | > 200 nM | –
10 | Cn1ccc(NC(=O)Cc2ccc(-c3cc(NC(=O)C4CC4)nc4[nH]ccc34)cc2)n1 [Example 556, N-(4-(4-(2-((1-methyl-1H-pyrazol-3-yl)amino)-2-oxoethyl)phenyl)-1H-pyrrolo[2,3-b]pyridin-6-yl)cyclopropanecarboxamide] | 20 to 200 nM | –
11 | O=C(Nc1cc(-c2ccc(CC(=O)N3CCCCC3)cc2)c2cc[nH]c2n1)C1CC1 [Example 557, N-(4-(4-(2-oxo-2-(piperidin-1-yl)ethyl)phenyl)-1H-pyrrolo[2,3-b]pyridin-6-yl)cyclopropanecarboxamide] | 20 to 200 nM | –
12 | O=C(Nc1cc(-c2ccc(CC(=O)N3CCNCC3)cc2)c2cc[nH]c2n1)C1CC1 [Example 558, N-(4-(4-(2-oxo-2-(piperazin-1-yl)ethyl)phenyl)-1H-pyrrolo[2,3-b]pyridin-6-yl)cyclopropanecarboxamide] | > 200 nM | –
13 | O=C(Nc1cc(-c2ccc(CC(=O)N3CCS(=O)(=O)CC3)c(F)c2)c2cc[nH]c2n1)C1CC1 [Example 559, N-(4-(4-(2-(1,1-dioxidothiomorpholino)-2-oxoethyl)-3-fluorophenyl)-1H-pyrrolo[2,3-b]pyridin-6-yl)cyclopropanecarboxamide] | 20 to 200 nM | –
14 | O=C(Nc1cc(-c2ccc(CC(=O)N3CCSCC3)cc2)c2cc[nH]c2n1)C1CC1 [Example 560, N-(4-(4-(2-oxo-2-thiomorpholinoethyl)phenyl)-1H-pyrrolo[2,3-b]pyridin-6-yl)cyclopropanecarboxamide] | 20 to 200 nM | –
15 | O=C(Nc1cc(-c2ccc(CC(=O)N3CCC(F)(F)CC3)cc2)c2cc[nH]c2n1)C1CC1 [Example 561, N-(4-(4-(2-(4,4-difluoropiperidin-1-yl)-2-oxoethyl)phenyl)-1H-pyrrolo[2,3-b]pyridin-6-yl)cyclopropanecarboxamide] | 20 to 200 nM | –
16 | CCS(=O)(=O)N1CCN(C(=O)Cc2ccc(-c3cc(NC(=O)C4CC4)nc4[nH]ccc34)cc2)CC1 [Example 563, N-(4-(4-(2-(4-(ethylsulfonyl)piperazin-1-yl)-2-oxoethyl)phenyl)-1H-pyrrolo[2,3-b]pyridin-6-yl)cyclopropanecarboxamide] | 20 to 200 nM | –

Row | Compound | IC50 [1] | IC50
17 | CCCS(=O)(=O)N1CCN(C(=O)Cc2ccc(-c3cc(NC(=O)C4CC4)nc4[nH]ccc34)cc2)CC1 [Example 564, N-(4-(4-(2-oxo-2-(4-(propylsulfonyl)piperazin-1-yl)ethyl)phenyl)-1H-pyrrolo[2,3-b]pyridin-6-yl)cyclopropanecarboxamide] | 20 to 200 nM | –
18 | CCOC(=O)N1CCN(C(=O)Cc2ccc(-c3cc(NC(=O)C4CC4)nc4[nH]ccc34)cc2)CC1 [Example 565, ethyl 4-(2-(4-(6-(cyclopropanecarboxamido)-1H-pyrrolo[2,3-b]pyridin-4-yl)phenyl)acetyl)piperazine-1-carboxylate] | 20 to 200 nM | –
19 | O=C(Nc1cc(-c2ccc(CC(=O)N3CCN(S(=O)(=O)NCC(F)(F)F)CC3)cc2)c2cc[nH]c2n1)C1CC1 [Example 566, (N-(4-(4-(2-oxo-2-(4-(N-(2,2,2-trifluoroethyl)sulfamoyl)piperazin-1-yl)ethyl)phenyl)-1H-pyrrolo[2,3-b]pyridin-6-yl)cyclopropanecarboxamide)] | > 200 nM | –
20 | N#CC1CCN(C(=O)Cc2ccc(-c3cc(NC(=O)C4CC4)nc4[nH]ccc34)cc2)C1 (centres unmarked) [Example 567, N-(4-(4-(2-(3-cyanopyrrolidin-1-yl)-2-oxoethyl)phenyl)-1H-pyrrolo[2,3-b]pyridin-6-yl)cyclopropanecarboxamide] | 20 to 200 nM | –
21 | N#CC1CN(C(=O)Cc2ccc(-c3cc(NC(=O)C4CC4)nc4[nH]ccc34)cc2)C1 [Example 568, N-(4-(4-(2-(3-cyanoazetidin-1-yl)-2-oxoethyl)phenyl)-1H-pyrrolo[2,3-b]pyridin-6-yl)cyclopropanecarboxamide] | 20 to 200 nM | –
22 | O=C(Nc1cc(-c2ccc(CC(=O)N3CCC(F)(F)C3)cc2)c2cc[nH]c2n1)C1CC1 [Example 569, N-(4-(4-(2-(3,3-difluoropyrrolidin-1-yl)-2-oxoethyl)phenyl)-1H-pyrrolo[2,3-b]pyridin-6-yl)cyclopropanecarboxamide] | < 20 nM | –
23 | O=C(Nc1cc(-c2ccc(CC(=O)N3CCC(C(F)(F)F)CC3)cc2)c2cc[nH]c2n1)C1CC1 [Example 570, N-(4-(4-(2-oxo-2-(4-(trifluoromethyl)piperidin-1-yl)ethyl)phenyl)-1H-pyrrolo[2,3-b]pyridin-6-yl)cyclopropanecarboxamide] | 20 to 200 nM | –
24 | O=C(Nc1cc(-c2ccc(C(F)(F)C(=O)N3CCS(=O)(=O)CC3)cc2)c2cc[nH]c2n1)C1CC1 [Example 571, N-(4-(4-(2-(1,1-dioxidothiomorpholino)-1,1-difluoro-2-oxoethyl)phenyl)-1H-pyrrolo[2,3-b]pyridin-6-yl)cyclopropanecarboxamide] | 20 to 200 nM | –
25 | O=C(Nc1cc(-c2ccc(C(F)(F)C(=O)N3CCOCC3)cc2)c2cc[nH]c2n1)C1CC1 [Example 572, N-(4-(4-(1,1-difluoro-2-morpholino-2-oxoethyl)phenyl)-1H-pyrrolo[2,3-b]pyridin-6-yl)cyclopropanecarboxamide] | 20 to 200 nM | –
26 | CN(CC#N)C(=O)Cc1ccc(-c2cc(NC(=O)C3CC3)nc3[nH]ccc23)cc1 [Example 573, N-(4-(4-(2-((cyanomethyl)(methyl)amino)-2-oxoethyl)phenyl)-1H-pyrrolo[2,3-b]pyridin-6-yl)cyclopropanecarboxamide] | 20 to 200 nM | –
27 | O=C(Nc1cc(-c2ccc(CC(=O)N3CC[S+]([O-])CC3)cc2)c2cc[nH]c2n1)C1CC1 [Example 574, N-(4-(4-(2-(1-oxidothiomorpholino)-2-oxoethyl)phenyl)-1H-pyrrolo[2,3-b]pyridin-6-yl)cyclopropanecarboxamide] | 20 to 200 nM | –
28 | N#CC1CCN(C(=O)C(F)(F)c2ccc(-c3cc(NC(=O)C4CC4)nc4[nH]ccc34)cc2)CC1 [Example 575, N-(4-(4-(2-(4-cyanopiperidin-1-yl)-1,1-difluoro-2-oxoethyl)phenyl)-1H-pyrrolo[2,3-b]pyridin-6-yl)cyclopropanecarboxamide] | 20 to 200 nM | –
29 | N#CC1COCCN1C(=O)Cc1ccc(-c2cc(NC(=O)C3CC3)nc3[nH]ccc23)cc1 (centres unmarked) [Example 576, N-(4-(4-(2-(3-cyanomorpholino)-2-oxoethyl)phenyl)-1H-pyrrolo[2,3-b]pyridin-6-yl)cyclopropanecarboxamide] | 20 to 200 nM | –
30 | O=C(Nc1cc(-c2ccc(C3(C(=O)N4CCS(=O)(=O)CC4)CC3)cc2)c2cc[nH]c2n1)C1CC1 [Example 577, N-(4-(4-(1-(1,1-dioxidothiomorpholine-4-carbonyl)cyclopropyl)phenyl)-1H-pyrrolo[2,3-b]pyridin-6-yl)cyclopropanecarboxamide] | 20 to 200 nM | –
31 | O=C(Nc1cc(C2=CCN(CC(=O)N3CCS(=O)(=O)CC3)CC2)c2cc[nH]c2n1)C1CC1 [Example 578, N-(4-(1-(2-(1,1-dioxidothiomorpholino)-2-oxoethyl)-1,2,3,6-tetrahydropyridin-4-yl)-1H-pyrrolo[2,3-b]pyridin-6-yl)cyclopropanecarboxamide] | 20 to 200 nM | –
32 | O=C(Nc1cc(-c2ccc(CNC(=O)N3CCOCC3)cc2)c2cc[nH]c2n1)C1CC1 [Example 579, N-(4-(6-(cyclopropanecarboxamido)-1H-pyrrolo[2,3-b]pyridin-4-yl)benzyl)morpholine-4-carboxamide] | > 200 nM | –
